Test results from patent US5650428A, “Arylsulfonamide derivative and pharmaceutical compositions and use thereof” (NKK Corporation, priority 1993, dated 1997).

Legend:
[1] = target: T1, thromboxane A2 (TxA2) receptor (Cavia porcellus, UniProt A0A286Y4I8); test: TxA2 antagonist action by binding assay; conditions: washed guinea pig platelets, 1 nM [3H]-SQ29,548, 45 minutes at 25° C.
T1 construct: to obtain washed platelets; from tissue; host or cells: washed platelets of male Hartley guinea pigs
T1 sequence (A0A286Y4I8 1-347): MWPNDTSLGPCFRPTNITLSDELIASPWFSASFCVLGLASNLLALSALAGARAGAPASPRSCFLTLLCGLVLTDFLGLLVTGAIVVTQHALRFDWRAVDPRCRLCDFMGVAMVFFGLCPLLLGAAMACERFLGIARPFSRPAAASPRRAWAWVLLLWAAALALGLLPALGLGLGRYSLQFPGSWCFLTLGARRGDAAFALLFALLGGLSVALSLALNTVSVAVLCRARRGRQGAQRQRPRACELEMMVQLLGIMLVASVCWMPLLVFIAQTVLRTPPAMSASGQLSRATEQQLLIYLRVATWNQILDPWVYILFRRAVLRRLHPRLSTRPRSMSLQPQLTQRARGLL
Description: (1) TxA2 antagonist action by binding assay Guinea pigs (Hartley; male; body weight=approximately 500 g) were anesthetized with ether, and the blood was collected into sodium citrate (final concentration=0.38%). The preparation of platelets was carried out at room temperature. The platelet rich plasma was obtained by centrifugation at 980 rpm for 10 minutes. One tenth (1/10) amount of 77 mM-EDTA-Na (pH 7.4) was added to the platelet rich plasma, and the mixture was centrifuged for 10 minutes at 3000 rpm. The suspension was again centrifuged at 3000 rpm for 10 minutes. The precipitate was further resuspended in a suspension buffer (2) shown in Table 2 to obtain washed platelets. The number of platelets was counted by an automatic blood cell counter (Sysmex Microcellcounter F-800) and the sample was diluted with the suspension buffer to 4×10^8 cells/ml. The platelets, sample solution and labeled compounds were placed into plastic tubes in amounts (volumes) shown in the following Table 3, incubated for 45 minutes at 25° C., and then the mixture was filtered using a cell harvester (Brandel cell harvester M-24R) by a glass fiber filter (Whatman GF/B). After the filter was sufficiently dried, the scintillation was counted by a scintillation counter (Beckman LS5000TD). IC50 was calculated from (binding)/(control binding) ratio in the presence of an antagonist. [table 3: the next 10 blocks are its lines as printed, fixed-width]

rat platelet = test: Inhibitory activity of aggregation in rat platelet; format: cell-based; conditions: rat platelet rich plasma, arachidonic acid (final concentration 0.5 mM) as inducer; read-out: C: Inhibitory activity of aggregation in rat platelet (IC50; μM)
Description: (3) Inhibitory Activity of Aggregation in Rat Platelet The abdomen of etherized rat was open, and blood was taken from the abdominal arteries, using a sodium citrate solution (final concentration was 0.38%). The blood was centrifuged at 1100 rpm for 10 minutes, and the supernatent was separated as the platelet rich plasma. The plasma was further centrifuged at 2000 rpm for 15 minutes to obtain the supernatent as a platelet poor plasma. The platelet rich plasma (280 μl) was placed in a measuring cuvette and preincubated for 1 minute at 37° C. Then, a sample solution (10 μl) was added. After 2 minutes, an arachidonic acid solution (final concentration=0.5 mM) (10 μl) was added as an inducer. The change in light transmission was recorded for 5 minutes.

Row | SMILES | IC50 [1] | IC50 (rat platelet)
1 | O=C(O)Cc1ccc(NC(=O)C(COc2ccccc2Cl)NS(=O)(=O)c2ccc(I)cc2)cc1 (racemic) [Example 152, (RS)-N-(4-(carboxymethyl)phenyl)-3-(2-chlorophenoxy)-2-(4-iodobenzenesulfonylamino)propanamide] | 0.074 µM | 1.7 µM
2 | O=C(O)Cc1ccc(NC(=O)C(CCOC2CCCCO2)NS(=O)(=O)c2ccc(Cl)cc2)cc1 (racemic) [Example 169, (RS)-N-(4-(carboxymethyl)phenyl)-2-(4-chlorobenzenesulfonylamino)-4-(tetrahydropyran-2-yloxy)butanamide] | 0.69 µM | 1.7 µM
3 | O=C(O)Cc1ccc(NC(=O)C(CCc2ccccc2)NS(=O)(=O)c2ccc(Cl)cc2)cc1 (racemic) [Example 172, (RS)-N-(4-(carboxymethyl)phenyl)-2-(4-chlorobenzenesulfonylamino)-4-phenylbutanamide] | 0.072 µM | 1.7 µM
4 | O=C(O)CCc1ccc(NC(=O)C(CCc2ccccc2)NS(=O)(=O)c2ccc(Cl)cc2)cc1 (racemic) [Example 174, (RS)-N-(4-(2-carboxyethyl)phenyl)-2-(4-chlorobenzenesulfonylamino)-4-phenylbutanamide] | 0.17 µM | 5.3 µM
5 | CCCCC(NS(=O)(=O)c1ccc(Br)cc1)C(=O)Nc1ccc(CC(=O)O)cc1 (racemic) [Example 226, (RS)-2-(4-bromobenzenesulfonylamino)-N-(4-(carboxymethyl)phenyl)hexanamide] | 0.072 µM | 0.53 µM
6 | CC(C)CC(NS(=O)(=O)c1ccc(Cl)cc1)C(=O)Nc1ccc(CC(=O)O)cc1 (racemic) [Example 232, (RS)-N-(4-(carboxymethyl)phenyl)-2-(4-chlorobenzenesulfonylamino)-4-methylpentanamide] | 0.16 µM | 1.7 µM
7 | CSCCC(NS(=O)(=O)c1ccc(Cl)cc1)C(=O)Nc1ccc(CC(=O)O)cc1 (racemic) [Example 233, (RS)-N-(4-(carboxymethyl)phenyl)-2-(4-chlorobenzenesulfonylamino)-4-methylthiobutanamide] | 0.17 µM | 0.17 µM
8 | CCSCCC(NS(=O)(=O)c1ccc(Cl)cc1)C(=O)Nc1ccc(CC(=O)O)cc1 (racemic) [Example 242, (RS)-N-(4-(carboxymethyl)phenyl)-2-(4-chlorobenzenesulfonylamino)-4-ethylthiobutanamide] | 0.032 µM | 0.16 µM
9 | CCSCCC(NS(=O)(=O)c1ccc(Cl)cc1)C(=O)Nc1ccc(CCC(=O)O)cc1 (racemic) [Example 244, (RS)-N-(4-(2-carboxyethyl)phenyl)-2-(4-chlorobenzenesulfonylamino)-4-ethylthiobutanamide] | 0.29 µM | 1.6 µM
10 | O=C(O)Cc1ccc(NC(=O)C(Cc2ccccc2)NS(=O)(=O)c2ccc(Cl)cc2)cc1 (racemic) [Example 247, (RS)-N-(4-(carboxymethyl)phenyl)-2-(4-chlorobenzenesulfonylamino)-3-phenylpropanamide] | 0.046 µM | 0.54 µM
11 | O=C(O)CCc1ccc(NC(=O)C(Cc2ccccc2)NS(=O)(=O)c2ccc(Cl)cc2)cc1 (racemic) [Example 249, (RS)-N-(4-(2-carboxyethyl)phenyl)-2-(4-chlorobenzenesulfonylamino)-3-phenylpropanamide] | 0.024 µM | 0.18 µM
12 | O=C(O)Cc1ccc(NC(=O)C(Cc2ccccc2)NS(=O)(=O)c2ccc(Br)cc2)cc1 (racemic) [Example 251, (RS)-2-(4-bromobenzenesulfonylamino)-N-(4-(carboxymethyl)phenyl)-3-phenylpropanamide] | 0.012 µM | 0.17 µM
13 | O=C(O)Cc1ccc(NC(=O)C(CC2CCCCC2)NS(=O)(=O)c2ccc(Cl)cc2)cc1 (racemic) [Example 260, (RS)-N-(4-(carboxymethyl)phenyl)-2-(4-chlorobenzenesulfonylamino)-3-cyclohexylpropanamide] | 0.06 µM | 0.89 µM
14 | CCCC[C@H](NS(=O)(=O)c1ccc(Cl)cc1)C(=O)Nc1ccc(CC(=O)O)cc1 [Example 223, (S)-N-(4-(carboxymethyl)phenyl)-2-(4-chlorobenzenesulfonylamino)hexanamide] | 0.13 µM | 0.17 µM
15 | CCCC[C@@H](NS(=O)(=O)c1ccc(Cl)cc1)C(=O)Nc1ccc(CC(=O)O)cc1 [Example 224, (R)-N-(4-(carboxymethyl)phenyl)-2-(4-chlorobenzenesulfonylamino)hexanamide] | 48.2 µM | 3.4 µM
16 | CSCC[C@H](NS(=O)(=O)c1ccc(Cl)cc1)C(=O)Nc1ccc(CC(=O)O)cc1 [Example 234, (S)-N-(4-(carboxymethyl)phenyl)-2-(4-chlorobenzenesulfonylamino)-4-methylthiobutanamide] | 0.052 µM | 0.17 µM
17 | CSCC[C@@H](NS(=O)(=O)c1ccc(Cl)cc1)C(=O)Nc1ccc(CC(=O)O)cc1 [Example 235, (R)-N-(4-(carboxymethyl)phenyl)-2-(4-chlorobenzenesulfonylamino)-4-methylthiobutanamide] | 22 µM | 17.1 µM
18 | CSCC[C@H](NS(=O)(=O)c1ccc(Cl)cc1)C(=O)Nc1ccc(CCC(=O)O)cc1 [Example 237, (S)-N-(4-(2-carboxyethyl)phenyl)-2-(4-chlorobenzenesulfonylamino)-4-methylthiobutanamide] | 0.15 µM | 0.3 µM
19 | CSCC[C@H](NS(=O)(=O)c1ccc(Br)cc1)C(=O)Nc1ccc(CC(=O)O)cc1 [Example 239, (S)-2-(4-bromobenzenesulfonylamino)-N-(4-(carboxymethyl)phenyl)-4-methylthiobutanamide] | 0.026 µM | 0.055 µM
20 | CSCC[C@H](NS(=O)(=O)c1ccc(Br)cc1)C(=O)Nc1ccc(CCC(=O)O)cc1 [Example 240, (S)-2-(4-bromobenzenesulfonylamino)-N-(4-(2-carboxyethyl)phenyl)-4-methylthiobutanamide] | 0.099 µM | 0.17 µM
21 | CSCC[C@H](NS(=O)(=O)c1ccc(Br)cc1)C(=O)Nc1cccc(C(=O)O)c1 [Example 241, (S)-2-(4-bromobenzenesulfonylamino)-N-(3-carboxyphenyl)-4-methylthiobutanamide] | 0.014 µM | 0.053 µM
22 | O=C(O)Cc1ccc(NC(=O)[C@H](Cc2ccccc2)NS(=O)(=O)c2ccc(Cl)cc2)cc1 [Example 248, (S)-N-(4-(carboxymethyl)phenyl)-2-(4-chlorobenzenesulfonylamino)-3-phenylpropanamide] | 0.012 µM | 0.053 µM
23 | O=C(O)CCc1ccc(NC(=O)[C@H](Cc2ccccc2)NS(=O)(=O)c2ccc(Cl)cc2)cc1 [Example 250, (S)-N-(4-(2-carboxyethyl)phenyl)-2-(4-chlorobenzenesulfonylamino)-3-phenylpropanamide] | 0.029 µM | 0.17 µM
24 | O=C(O)Cc1ccc(NC(=O)[C@H](Cc2ccccc2)NS(=O)(=O)c2ccc(Br)cc2)cc1 [Example 252, (S)-2-(4-bromobenzenesulfonylamino)-N-(4-(carboxymethyl)phenyl)-3-phenylpropanamide] | 0.0071 µM | 0.055 µM
25 | O=C(O)CCc1ccc(NC(=O)[C@H](Cc2ccccc2)NS(=O)(=O)c2ccc(Br)cc2)cc1 [Example 254, (S)-2-(4-bromobenzenesulfonylamino)-N-(4-(2-carboxyethyl)phenyl)-3-phenylpropanamide] | 0.005 µM | 0.051 µM
26 | O=C(O)c1cccc(NC(=O)[C@H](Cc2ccccc2)NS(=O)(=O)c2ccc(Br)cc2)c1 [Example 257, (S)-2-(4-bromobenzenesulfonylamino)-N-(3-carboxyphenyl)-3-phenylpropanamide] | 0.0087 µM | 0.17 µM
